Results reported in publication PMC10256634, “Comparative in vivo toxicokinetics of silver powder, nanosilver and soluble silver compounds after oral administration to rats” (Archives of Toxicology, 2023).
Where “and” joins values, the source holds several entries; their conditions need not be identical. Equal entries are not always repeated.

What was measured:
[1] = Clinical observations, bodyweight, organ weights and macroscopic examination; type: in vivo, Sprague–Dawley rats; conditions: repeated dose study, 175 mg AgAc/kg bw/d
Description: Animals were inspected visually at least twice daily for evidence of clinical signs or change in health status. As applicable, injection sites were regularly assessed post-dosing for any local reaction. Bodyweight was measured for all single-dose treatments before administration (typically the day before treatment), on the day of administration and on the day of termination. For the 28-day repeated administration phase, the bodyweight of each animal was recorded pre-treatment, on Day 1 of treatment and then at weekly intervals (including on the day of termination).
(§1) Following final blood sampling, animals were euthanised using carbon dioxide asphyxiation, with subsequent exsanguination, prior to macroscopic examination for the investigation of any abnormalities. Tissues for analysis of total Ag content were obtained from animals administered the test items for 28 days. The tissue set comprised: brain (whole), bone marrow (from both femurs), small intestine (duodenum/ileum/jejenum), liver, spleen, ovaries, testes (excluding epididymides) and uterus. The luminal contents of GI tract samples were thoroughly flushed out with cold purified water. After weighing, tissues were retained frozen (− 20 °C).

[2] = Total Ag content in tissues after 28 days repeated oral dosing (ICP-MS); type: in vivo, Sprague–Dawley rats
Text: Comparative TK data for the various test items were obtained after single doses, and repeated dose administration for 28 days. This was based on measurement of Ag levels in whole blood at various timepoints, and also total Ag content in tissues (in the repeated dose study phase). This approach facilitated a direct quantitative comparison of parameters such as bioavailability, achieved systemic exposure and the delivered Ag dose to tissues after administration of the different Ag test items. Determination of single-dose p.o. and i.v. blood-level profiles was intended to provide information on absolute bioavailability (F value). Parallel vehicle control groups were included within each phase.
as §1
Analysis occurred within the 48-day assured stability period.
All bioanalytical methods underwent validation before deployment.

serum copper (Cu) levels = experiment: Serum Cu levels after 28 days repeated oral dosing (ICP-MS); conditions: for Serum Cu conc. % of Control group mean: mean (SD)
Description: Samples of whole blood (0.2 mL) were obtained from the jugular vein of animals, with lithium heparin integrated as an anticoagulant. […] Each sample was gently mixed and frozen on dry ice, pending transfer to storage at − 20 °C. […] Serum was obtained by centrifugation (10 min, 2000 RCF) and stored frozen until analysis.
Previous robust TK studies involving the analysis of Ag in biological matrices have utilised aggressive digestion techniques, typically based on digestion/mineralisation in concentrated HNO3 with microwave-accelerated reaction systems. To avoid subsequent precipitation of Ag into insoluble complexes and subsequent loss for analysis, sample stabilisation with an excess of chloride (e.g. HCl) is appropriate. These principles were adopted for sample processing in this investigation. In brief, each blood subsample (50 µL) was combined with 800 µL concentrated HNO3 (65–70%) in a glass pyrex tube. The contents were then digested in an Ultrawave (Milestone, Italy) digester using digestion programme ‘blood’. Afterwards, 800 μL HCl (37%) was added, and 400 μL of the HNO3/HCl digest was combined with 2.60 mL of rhodium internal standard followed by rotary mixing for at least 30 min. The processed sample was then analysed on an Agilent 7900 × inductively coupled plasma mass spectrometer (ICP-MS). […] The digestion was 20 min at elevated temperature and pressure (200 °C, 100 bar, 1500 W). Then, 3 parts of concentrated HCl (35–40%) were added, and the digest was stored at − 20 °C until analysis. A 50 µL subsample was subsequently mixed with 3.95 mL of rhodium internal standard and analysed by ICP-MS. Analysis occurred within the 48-day assured stability period.
All bioanalytical methods underwent validation before deployment. ICP-MS runs included quality control samples and a multilevel calibration. Lower limits of quantitation (LLOQ) for the analytical methods were, respectively, 10 ng/mL for total Ag in blood, 5 ng/mL for total Ag in tissue and 30 ng Cu/mL for Cu in serum.

[3] = 28 d oral 5 mg/kg bw/d [Ag equivalent 3.25 AgAc, 3.2 AgNO3]
[4] = 28 d oral 5 mg/kg bw/d [Ag equivalent 3.25 AgAc, 3.2 AgNO3], female
[5] = 28 d oral 5 mg/kg bw/d [Ag equivalent 3.25 AgAc, 3.2 AgNO3], male
[6] = 28 d oral 175 [114 Ag] mg/kg bw/d
[7] = 28 d oral 175 [114 Ag] mg/kg bw/d, female
[8] = 28 d oral 175 [114 Ag] mg/kg bw/d, male
[9] = 28 d oral 125 [80 Ag] mg/kg bw/d
[10] = 28 d oral 125 [80 Ag] mg/kg bw/d, female
[11] = 28 d oral 125 [80 Ag] mg/kg bw/d, male

CC(=O)[O-].[Ag+] [AgAc, Silver(I) acetate]
bodyweight [1]: slight depression in weight gain during Week 1 | Silver level in ovary [2, 3]: 2197 ng Ag/g tissue | Silver level in testis [2, 3]: 167 ng Ag/g tissue | Silver level in uterus [2, 3]: 188 ng Ag/g tissue | Silver level in GI tract [2, 4]: 3797 ng Ag/g tissue | Silver level in bone marrow [2, 4]: 126 ng Ag/g tissue | Silver level in brain [2, 4]: 169 ng Ag/g tissue | Silver level in liver [2, 4]: 305 ng Ag/g tissue | Silver level in spleen [2, 4]: 990 ng Ag/g tissue | Silver level in GI tract [2, 5]: 2770 ng Ag/g tissue | Silver level in bone marrow [2, 5]: 62 ng Ag/g tissue | Silver level in brain [2, 5]: 142 ng Ag/g tissue | Silver level in liver [2, 5]: 55.4 ng Ag/g tissue | Silver level in spleen [2, 5]: 283 ng Ag/g tissue | Silver level in ovary [2, 6]: 39668 ng Ag/g tissue | Silver level in testis [2, 6]: 1531 ng Ag/g tissue | Silver level in uterus [2, 6]: 11094 ng Ag/g tissue | Silver level in GI tract [2, 7]: 103814 ng Ag/g tissue | Silver level in bone marrow [2, 7]: 46761 ng Ag/g tissue | Silver level in brain [2, 7]: 1455 ng Ag/g tissue | Silver level in liver [2, 7]: 21872 ng Ag/g tissue | Silver level in spleen [2, 7]: 141560 ng Ag/g tissue | Silver level in GI tract [2, 8]: 83211 ng Ag/g tissue | Silver level in bone marrow [2, 8]: 21373 ng Ag/g tissue | Silver level in brain [2, 8]: 1458 ng Ag/g tissue | Silver level in liver [2, 8]: 22660 ng Ag/g tissue | Silver level in spleen [2, 8]: 96379 ng Ag/g tissue | Ag in tissue concentrations, comparison between test items ([2]; 28 d oral, matched 35–36 mg Ag/kg bw/d, silver acetate vs nanosilver or silver powder, nanosilver vs silver powder (except spleen of male animals), p < 0.05): significantly higher in all tissues

O=[N+]([O-])[O-].[Ag+] [AgNO3, silver(I) nitrate]
Silver level in ovary [2, 3]: 1484 ng Ag/g tissue | Silver level in testis [2, 3]: 231 ng Ag/g tissue | Silver level in uterus [2, 3]: 145 ng Ag/g tissue | Silver level in GI tract [2, 4]: 2438 ng Ag/g tissue | Silver level in bone marrow [2, 4]: 87 ng Ag/g tissue | Silver level in brain [2, 4]: 177 ng Ag/g tissue | Silver level in liver [2, 4]: 130 ng Ag/g tissue | Silver level in spleen [2, 4]: 722 ng Ag/g tissue | Silver level in GI tract [2, 5]: 1310 ng Ag/g tissue | Silver level in bone marrow [2, 5]: 73 ng Ag/g tissue | Silver level in brain [2, 5]: 142 ng Ag/g tissue | Silver level in liver [2, 5]: 81.7 ng Ag/g tissue | Silver level in spleen [2, 5]: 404 ng Ag/g tissue | Silver level in ovary [2, 9]: 44025 ng Ag/g tissue | Silver level in testis [2, 9]: 1464 ng Ag/g tissue | Silver level in uterus [2, 9]: 22466 ng Ag/g tissue | Silver level in GI tract [2, 10]: 14798 ng Ag/g tissue | Silver level in bone marrow [2, 10]: 25200 ng Ag/g tissue | Silver level in brain [2, 10]: 1019 ng Ag/g tissue | Silver level in liver [2, 10]: 16024 ng Ag/g tissue | Silver level in spleen [2, 10]: 62335 ng Ag/g tissue | Silver level in GI tract [2, 11]: 10592 ng Ag/g tissue | Silver level in bone marrow [2, 11]: 46553 ng Ag/g tissue | Silver level in brain [2, 11]: 1091 ng Ag/g tissue | Silver level in liver [2, 11]: 28859 ng Ag/g tissue | Silver level in spleen [2, 11]: 54070 ng Ag/g tissue | Serum Cu conc. % of Control group mean (serum copper (Cu) levels; 28 d oral 5 [3.2 Ag] mg/kg bw/d, female): 101 (10) % of Control group mean | Serum Cu conc. % of Control group mean (serum copper (Cu) levels; 28 d oral 5 [3.2 Ag] mg/kg bw/d, male): 111 (25) % of Control group mean | Serum Cu conc. % of Control group mean (serum copper (Cu) levels; 28 d oral 55 [35 Ag] mg/kg bw/d, female): 81 (11) % of Control group mean | Serum Cu conc. % of Control group mean (serum copper (Cu) levels; 28 d oral 55 [35 Ag] mg/kg bw/d, male): 79 (13) % of Control group mean | Serum Cu conc. % of Control group mean (serum copper (Cu) levels; [10]): 74 % of Control group mean and 74 (15) % of Control group mean | Serum Cu conc. % of Control group mean (serum copper (Cu) levels; [11]): 62 % of Control group mean and 62 (12) % of Control group mean | Effect on circulating Cu levels (serum copper (Cu) levels; 28 d oral, AgMP up to limit dose 1000 mg/kg bw/d, AgNO3 detectable at 55, statistically significant at 125 mg/kg bw/d): reduction in circulating Cu levels was observed
